Earlier results, collected in US20050239746A1, “Pharmaceutical composition” (priority 2002, published 2005).

How the values were obtained:
[1] = intravenous infusion, 3 g single dose, 8 healthy volunteers
[2] = tested on: isolated guinea pig trachea; settings: 0.1M aqueous solution in 40% w/v 2-hydroxypropyl-beta-cyclodextrin

Row | Molecule | safety and tolerability [1] | muscle relaxant activity compared with the lipid emulsion [2]
1 | 2-hydroxypropyl-beta-cyclodextrin [Encapsin-HPB] | safe and well tolerated | –
2 | CC(C)c1cccc(C(C)C)c1O [Propofol, 2,6 di-isopropylphenol] | – | three times higher
